Measurements: publication PMC5681660, “Reduced hepatitis B and D viral entry using clinically applied drugs as novel inhibitors of the bile acid transporter NTCP” (Scientific Reports, 2017)
Where a name gives a salt, the structure may show the parent alone. Read-outs that look alike come from different tables or passages of the source.

Experiments:
human NTCP [1] = target: T1, human NTCP (Homo sapiens, UniProt Q14973); experiment: Screening taurocholate uptake assay (96-well, [14C]taurocholate, 10 µM drug)
T1 sequence (Q14973 1-349): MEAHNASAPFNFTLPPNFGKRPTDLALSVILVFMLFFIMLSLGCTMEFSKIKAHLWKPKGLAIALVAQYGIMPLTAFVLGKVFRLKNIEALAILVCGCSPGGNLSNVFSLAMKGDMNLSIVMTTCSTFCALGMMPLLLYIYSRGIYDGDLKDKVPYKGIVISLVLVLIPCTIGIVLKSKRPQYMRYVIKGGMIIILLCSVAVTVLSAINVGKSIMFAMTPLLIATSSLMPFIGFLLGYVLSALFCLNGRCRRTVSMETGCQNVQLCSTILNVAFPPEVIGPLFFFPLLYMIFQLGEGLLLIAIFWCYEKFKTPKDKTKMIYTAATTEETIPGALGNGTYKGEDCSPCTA

human NTCP [2] = target: T1, human NTCP; experiment: Screening fluorescent competitive Myrcludex B-FITC binding assay (96-well, 10 µM drug)
[3] = Prestwick library screen, 10 µM drug, B-score of taurocholate uptake
[4] = combined ranking from functional and binding assay B-scores
[5] = Prestwick library screen, 10 µM drug, B-score of Myrcludex B-FITC binding
[6] = combined ranking from functional and binding screening assays
[7] = screen, 10 µM drug, taurocholate uptake
[8] = screen, 10 µM drug, Myrcludex B-FITC binding
[9] = Prestwick library screen, taurocholate uptake, 10 µM drug
[10] = ranking score beside the functional and binding assay B-scores of the screen
[11] = Prestwick library screen, Myrcludex B-FITC binding, 10 µM drug

| SMILES | B-score functional assay (human NTCP [1]; [3]) | Ranking score (human NTCP [1]; [4]) | B-score binding assay (human NTCP [2]; [5]) | Ranking score (human NTCP [1]; [6]) | B-score functional assay (human NTCP [1]; [7]) | B-score binding assay (human NTCP [2]; [8]) | further results |
| --- | --- | --- | --- | --- | --- | --- | --- |
| Cl.NCC(O)c1ccc(O)cc1 (racemic) [(+,-)-Octopamine hydrochloride] | 2.044 | 930.549 | 0.069 |  |  |  |  |
| O=C(O)c1ccccc1OP(=O)(O)O [Fosfosal] |  |  |  | 393.853 | -0.869 | -0.072 |  |
| CC(C)C[C@H](CN)CC(=O)O [Pregabalin] | 1.204 | 863.391 | 0.027 |  |  |  |  |
| CC(N/C(=N\C#N)Nc1ccncc1)C(C)(C)C (stereo not drawn) [Pinacidil] |  |  |  | 332.839 | -0.832 | -0.477 |  |
| COc1ccccc1N1CCN(CC(O)COc2cccc3ccccc23)CC1.Cl.Cl (stereo not drawn) [Naftopidil dihydrochloride] |  |  |  | 412.912 | -1.853 | 1.879 |  |
| O=S(=O)(O)c1cc(O)ccc1O [Ethamsylate] | 0.032 | 873.696 | 1.4 |  |  |  |  |
| CC12CC3CC(C)(C1)CC(N)(C3)C2 [Memantine Hydrochloride] |  |  |  |  |  |  | B-score functional assay (human NTCP [1]; [9]): 1.46; Ranking score (human NTCP [1]; [10]): 837.42; B-score binding assay (human NTCP [2]; [11]): -0.02 |
| CN1CCN(CC(=O)N2c3ccccc3C(=O)Nc3cccnc32)CC1 [Pirenzepine dihydrochloride] | 0.753 | 857.349 | 0.089 |  |  |  |  |
| CN(N=O)C(=O)N[C@H]1C(O)O[C@H](CO)[C@@H](O)[C@@H]1O (mixture of isomers) [Streptozotocin] |  |  |  | 307.444 | -0.84 | -0.654 |  |
| CCN(CC)CCNC(=O)COc1ccc(OC)cc1.Cl [Mefexamide hydrochloride] | 1.015 | 979.142 | 0.456 |  |  |  |  |
| CC(=O)[C@H]1CC[C@H]2[C@@H]3C[C@H](C)C4=CC(=O)CC[C@]4(C)[C@H]3[C@@H](O)C[C@]12C [Medrysone] |  |  |  | 406.005 | -0.706 | -0.142 |  |
| C[C@]12CCC(=O)C=C1CC[C@@H]1[C@@H]2C(=O)C[C@@]2(C)[C@H]1CC[C@]2(O)C(=O)CO [Cortisone] |  |  |  | 405.336 | -0.212 | -0.62 |  |
| Cc1onc(-c2c(Cl)cccc2Cl)c1C(=O)N[C@@H]1C(=O)N2[C@@H]1SC(C)(C)[C@@H]2C(=O)[O-].O.[Na+] [Dicloxacillin sodium salt hydrate] | 0.63 | 908.983 | 0.373 |  |  |  |  |
| COc1ccnc(C[S+]([O-])c2nc3ccc(OC(F)F)cc3[nH]2)c1OC (stereo not drawn) [Pantoprazole sodium] |  |  |  |  |  |  | B-score functional assay (human NTCP [1]): 0.443; Ranking score (human NTCP [1]): 878.449; B-score binding assay (human NTCP [2]): 0.377 |
| COc1cccc2c1C(=O)c1c(O)c3c(c(O)c1C2=O)C[C@@](O)(C(=O)CO)C[C@@H]3O[C@H]1C[C@H](N)[C@@H](O)[C@H](C)O1 [Epirubicin hydrochloride] |  |  |  |  |  |  | B-score functional assay (human NTCP [1]): 0.079; Ranking score (human NTCP [1]): 915.844; B-score binding assay (human NTCP [2]): 1.555 |
| O=C1C(O)=C([C@H]2CC[C@H](c3ccc(Cl)cc3)CC2)C(=O)c2ccccc21 [Atovaquone] |  |  |  |  |  |  | B-score functional assay (human NTCP [1]; [9]): -0.283; Ranking score (human NTCP [1]; [10]): 659.659; B-score binding assay (human NTCP [2]; [11]): 0.68 |
| N=C(N)NCC1COC2(CCCCC2)O1.N=C(N)NCC1COC2(CCCCC2)O1.O=S(=O)(O)O (stereo not drawn) [Guanadrel sulfate] |  |  |  | 326.821 | -2.033 | 0.27 |  |
| COc1cc(-c2ccc(=O)[nH]n2)ccc1OC(F)F [Zardaverine] |  |  |  | 379.335 | -1.701 | 0.49 |  |
| CC(=O)O[C@H]1C[C@@H]2CC[C@@H]3[C@H](CC[C@@]4(C)[C@H]3C[C@H]([N+]3(C)CCCCC3)[C@@H]4OC(C)=O)[C@@]2(C)C[C@@H]1N1CCCCC1 [Vecuronium bromide] |  |  |  |  |  |  | B-score functional assay (human NTCP [1]; [9]): 0.006; Ranking score (human NTCP [1]; [10]): 708.114; B-score binding assay (human NTCP [2]; [11]): 0.155 |

| SMILES | B-score functional assay (human NTCP [1]; [3]) | Ranking score (human NTCP [1]; [4]) | B-score binding assay (human NTCP [2]; [5]) | Ranking score (human NTCP [1]; [6]) | B-score functional assay (human NTCP [1]; [7]) | B-score binding assay (human NTCP [2]; [8]) | further results |
| --- | --- | --- | --- | --- | --- | --- | --- |
| CNC(C)(C)Cc1ccccc1.CNC(C)(C)Cc1ccccc1.O=S(=O)(O)O [Mephentermine hemisulfate] |  |  |  |  |  |  | B-score functional assay (human NTCP [1]; [9]): -0.093; Ranking score (human NTCP [1]; [10]): 728.877; B-score binding assay (human NTCP [2]; [11]): 0.758 |
| COc1cc(C(=O)N2CCOCC2)cc(OC)c1OC [Trimetozine] | 0.651 | 925.93 | 0.441 |  |  |  |  |
| CCCCNc1ccc(C(=O)OCCOCCOCCOCCOCCOCCOCCOCCOCCOC)cc1 [Benzonatate] | 0.062 | 933.857 | 2.274 |  |  |  |  |
| CC(=O)c1ccc(S(=O)(=O)NC(=O)NC2CCCCC2)cc1 [Acetohexamide] | 0.057 | 875.07 | 1.192 |  |  |  |  |
| Nc1ccc(S(N)(=O)=O)cc1 [Sulfanilamide] |  |  |  | 381.13 | 1.042 | -1.742 |  |
| NC(=O)N1c2ccccc2CC(=O)c2ccccc21 [Oxcarbazepine] |  |  |  |  |  |  | B-score functional assay (human NTCP [1]; [9]): 0.032; Ranking score (human NTCP [1]; [10]): 789.959; B-score binding assay (human NTCP [2]; [11]): 0.508 |
| Nc1ccc(S(=O)(=O)Nc2ccnn2-c2ccccc2)cc1 [Sulfaphenazole] | 0.483 | 867.854 | 0.287 |  |  |  |  |
| Oc1ccc2c3c1O[C@H]1[C@@H](O)CC[C@@]4(O)[C@@H](C2)N(CC2CCC2)CC[C@]314 [Nalbuphine hydrochloride] |  |  |  |  |  |  | B-score functional assay (human NTCP [1]): -1.445; Ranking score (human NTCP [1]): 312.49; B-score binding assay (human NTCP [2]): -0.132 |
| CNNCc1ccc(C(=O)NC(C)C)cc1 [Procarbazine hydrochloride] |  |  |  | 345.534 | -0.792 | -0.424 |  |
| CN(C)CCc1c[nH]c2ccc(Cn3cncn3)cc12 [Rizatriptan benzoate] |  |  |  |  |  |  | B-score functional assay (human NTCP [1]; [9]): -0.205; Ranking score (human NTCP [1]; [10]): 781.971; B-score binding assay (human NTCP [2]; [11]): 3.436 |
| C[C@@]1(O)CCOC(=O)C1 [Mevalonic-D, L acid lactone] | 0.673 | 868.822 | 0.161 |  |  |  |  |
| CCCCc1ccc2[nH]c(NC(=O)OC)nc2c1 [Parbendazole] | 1.481 | 989.697 | 0.33 |  |  |  |  |
| CN[C@H]1CC[C@@H](c2ccc(Cl)c(Cl)c2)c2ccccc21 [Sertraline] |  |  |  | 426.035 | 0.805 | -1.357 |  |
| Nc1ncnc2c1ncn2[C@@H]1O[C@H](COP(=O)(O)O)[C@@H](O)[C@H]1O.O [Adenosine 5'-monophosphate monohydrate] | 0.641 | 1091.98 | 2.827 |  |  |  |  |
| CC(Oc1ccccc1)C(=O)N[C@@H]1C(=O)N2[C@@H]1SC(C)(C)[C@@H]2C(=O)[O-].[K+] (stereo partly drawn) [Phenethicillin potassium salt] |  |  |  | 437.958 | -0.676 | -0.048 |  |
| CC(C(=O)O)c1ccc2c(c1)Cc1cccnc1O2 (stereo not drawn) [Pranoprofen] |  |  |  |  |  |  | B-score functional assay (human NTCP [1]; [9]): -0.016; Ranking score (human NTCP [1]; [10]): 817.912; B-score binding assay (human NTCP [2]; [11]): 1.204 |
| Clc1ccc2nsnc2c1NC1=NCCN1 [Tizanidine HCl] |  |  |  | 334.885 | -0.107 | -1.169 |  |
| CC(NCCC(c1ccccc1)c1ccccc1)c1ccccc1 (stereo not drawn) [Fendiline hydrochloride] | 0.662 | 880.552 | 0.223 |  |  |  |  |
